According to paper PMC8306139, “A Novel Dialkylamino-Functionalized Chalcone, DML6, Inhibits Cervical Cancer Cell Proliferation, In Vitro, via Induction of Oxidative Stress, Intrinsic Apoptosis and Mitotic Catastrophe” (Molecules, 2021):

Assays:
LOVO = test: MTT assay, LOVO; type: cell-based; settings: Homo sapiens, LoVo, 72 h, read-out: IC50 ± SD Colon LOVO
Method: (§2) The concentration of the tested compounds that produced a 50% inhibition of cell growth (IC50) was determined.
(§3) A panel of cancer cell lines, including cervical (OV2008 and HeLa), breast (MDA-MB-231), lung (A549) and colon (LOVO), prostate (DU145), human embryonic kidney cells (HEK293), human colon fibroblast cells (CRL1459), and Chinese hamster ovary cells (CHO), were grown as adherent monolayers in flasks containing Dulbecco’s modified Eagle medium (DMEM), supplemented with 10% fetal bovine serum (FBS) and 1% penicillin and streptomycin, in a humidified incubator with 5% CO2 at 37 °C.
The cells were seeded evenly (180 μL/well) in 96-well plates, at a density of 3000–5000 cells/well and incubated with serial dilutions of the compounds ranging from 0.1 to 100 μM. The MTT dye (4 mg/ml) was added after 72 h of incubation and incubated with the cells for an additional 4 h at 37 °C, allowing the viable cells to biotransform the yellow-colored MTT into dark-blue formazan crystals. Following incubation, the medium was aspirated, and the formazan crystals were dissolved by adding 100 μL of DMSO to each well. Cytation™ 5 and Cytation™ 7 multi-mode detector (Bio Tek Instruments, Winooski, VT, USA) was used to determine the absorbance readings at a wavelength of 570 nm. The IC50 values were determined based on 3 separate experiments, with each experiment carried out in triplicate.

OV2008 = test: MTT assay, OV2008; type: cell-based; settings: 72 h, read-out: IC50 ± SD Cervical OV2008
Method: as §2, §3
(§4) The cells were seeded evenly (180 μL/well) in 96-well plates, at a density of 3000–5000 cells/well and incubated with serial dilutions of the compounds ranging from 0.1 to 100 μM. The MTT dye (4 mg/ml) was added after 72 h of incubation and incubated with the cells for an additional 4 h at 37 °C, allowing the viable cells to biotransform the yellow-colored MTT into dark-blue formazan crystals. Following incubation, the medium was aspirated, and the formazan crystals were dissolved by adding 100 μL of DMSO to each well. Cytation™ 5 and Cytation™ 7 multi-mode detector (Bio Tek Instruments, Winooski, VT, USA) was used to determine the absorbance readings at a wavelength of 570 nm. The IC50 values were determined based on 3 separate experiments, with each experiment carried out in triplicate. The selectivity of the compounds was determined by comparing their IC50 values in cervical cancer compared to the normal epithelial cell lines, HEK293, CHO, and CRL1459.

cancer cell lines = test: MTT assay, panel of cancer cell lines; type: cell-based
Method: as §2, §3, §4

[1] = test system: human colon fibroblast cells (CRL1459); test: MTT assay, CRL1459; type: cell-based; settings: 72 h
Method: as §2, §3
(§5) The cells were seeded evenly (180 μL/well) in 96-well plates, at a density of 3000–5000 cells/well and incubated with serial dilutions of the compounds ranging from 0.1 to 100 μM. […] Cytation™ 5 and Cytation™ 7 multi-mode detector (Bio Tek Instruments, Winooski, VT, USA) was used to determine the absorbance readings at a wavelength of 570 nm. The IC50 values were determined based on 3 separate experiments, with each experiment carried out in triplicate. The selectivity of the compounds was determined by comparing their IC50 values in cervical cancer compared to the normal epithelial cell lines, HEK293, CHO, and CRL1459.

OV2008 cells [2] = test: IncuCyte Cytotox green assay; type: cell-based; settings: OV2008, up to 72 h, vs vehicle
Source text: The IncuCyte cytotox green reagent (Catalog # 4633, Essence BioScience, Ann Arbour, MI, USA) was used for real time quantification of dead OV2008 cells as previously described. This dye will only penetrate into cells with non-intact membranes (dead or non-viable cells). As the cells die, the increase in cell membrane permeability allows the reagent to enter the nucleus and bind to DNA, which emits green fluorescence at an excitation maximum of 491 nm and emission maximum of 509 nm. OV2008 cells were seeded (100 µL/well) in a 96-well plate and incubated overnight. The following day, DML6 (0.1–100 μM) was prepared at 3X the final assay concentrations in diluted IncuCyte™ Cytotox Reagent and added to each well (50 µL/well). The cells were immediately placed in the IncuCyte® S3 Live-Cell Analysis System (Essen BioScience, Ann Arbor, MI, USA) and images were taken every 2 h up to 72 h and analyzed using the integrated IncuCyte S3 software version 2020B (Essen BioScience, Ann Arbor, MI, USA).

OV2008 cells [3] = test: Cell cycle analysis, flow cytometry with propidium iodide; type: cell-based; settings: for percentage of cells in the G2 phase / percentage of cells in the G1 phase: 24 h; for percentage of cells in the G2 phase: vehicle 4.18%; for percentage of cells in the G1 phase: vehicle 85.99%
Method: Cell cycle analysis was conducted using flow cytometry cell cycle analysis with propidium iodide (PI) as previously described. OV2008 cells were plated into 6-well plates at 2.5 × 10^5 cells/well. The cells were incubated with the vehicle, 5 or 20 μM of DML6 for 24 h. The next day, the cells were trypsinized with 0.25% trypsin, 2.21 mM EDTA, 1X, washed, counted, and resuspended in 1ml of ice-cold PBS. The cells were then stained with 200 µL (50 µg/ml stock solution propidium iodide (PI) dye and incubated for at least 15 min. The distribution of the cells in each phase of the cell cycle after incubation with the vehicle or DML6 was determined using A BD FACSCanto™ flow cytometer (BD Biosciences, Becton-Dickinson, San Jose, CA, USA) and analyzed using FCS Express 7 plus De Novo software (Glendale, CA, USA).

Bcl-2 = test: Western blot, Bcl-2; type: cell-based; settings: OV2008, 20 μM, 24 h, vs vehicle
Method: (§1) The OV2008 cells were lysed to obtain total cellular protein fractions using Mammalian Protein Extraction Reagent (Catalog # 78501, M-PER™, Thermo Fisher Scientific, Waltham, MA, USA). The cells were seeded in […] at a density of 1 × 10^6 and incubated with 5 or 20 µM of DML6 or 1 µM of doxorubicin (Catalog # T1-2-, TargetMol, Boston, MA, USA) (a positive control) for 24 h. The following day, the cells were washed with ice-cold PBS, scraped using a cell scrapper and collected in Eppendorf tubes. The tubes were centrifuged at 1500 RPM at 4 °C for 5 min. The solution was discarded and replaced with 70 µL of the cell lysis buffer (M-PER reagent, 100 mM Sodium Orthovanadate (NaOV) at a final concentration of 2.5 mM) and a 100X protease inhibitor cocktail (Catalog # P8340, Sigma-Aldrich, St. Louis, MO, USA, final concentration of 1X, containing of aprotinin, bestatin, E-64, leupeptin and pepstatin). Thirty minutes later, the resulting solution was centrifuged at 10,000 RPM at 4 °C for 5 min and the supernatant was collected. The protein concentration of the cell extracts was determined using the bicinchoninic acid (BCA) (Catalog # 786-570, G-Biosciences, Saint Louis, MO, USA) quantification assay. […] Finally, the amount of protein in each blot was quantified using the Image J software (NIH, Bethesda, MD, USA). All data were calculated as a ratio to β-actin.

Bax = test: Western blot, Bax; type: cell-based; settings: OV2008, 5 and 20 μM, 24 h, vs vehicle
Method: as §1

Bak = test: Western blot, Bak; type: cell-based; settings: OV2008, 5 and 20 μM, 24 h, vs vehicle
Method: as §1

[4] = test system: Chinese hamster ovary cells (CHO)
Method: as §2, §3, §5

## CN(C)c1ccc(/C=C/C(=O)c2ccc(Cl)cc2Cl)cc1 [DML6, (E)-1-[2,4-dichlorophenyl]-3-(4-(dimethylamino)phenyl)prop-2-en-1-one]
LOVO
  IC50: 65 ± 49.5 µM
OV2008
  IC50: 7.8 µM
Cancer cell lines
  anti-proliferative efficacy in a wide range of cancer cell lines, compared to normal cells: moderate to good anti-proliferative efficacy
Cancer cell lines; range over the cell lines, read-out: IC50 values in all of the cancer cell lines
  IC50: 7.8 to 91.9 µM
[1]
  cytotoxicity in normal cells, CRL1459: did not produce significant cytotoxicity
OV2008 cells [2]
  Cytotox green fluorescent signal (dead cells) over time: increased significantly
OV2008 cells [3]; 5 μM
  percentage of cells in the G2 phase: 42.56%
  percentage of cells in the G1 phase: 16.01%
OV2008 cells [3]; 20 μM
  percentage of cells in the G2 phase: 59.96%
  percentage of cells in the G1 phase: 27.84%
OV2008 cells [3]; 5 or 10 µM, vs vehicle
  change of percentage of cells in the sub G1 phase: neither 5 or 10 µM of DML6 significantly altered
Bcl-2
  levels of the anti-apoptotic protein Bcl-2: significantly decreased
Bax
  expression of the pro-apoptotic protein Bax: significantly increased the expression
Bak
  expression of the pro-apoptotic protein Bak: significantly increased the expression
[4]
  cytotoxicity in normal cells, CHO: did not produce significant cytotoxicity
